Laboratory results: US4714764A, “2-(4-pyridylaminomethyl)-benzimidazole derivatives having antiviral activity” (Maruishi Seiyaku Kabushiki Kaisha, priority 1985, dated 1987)
Counter-ions that a name gives are not always drawn.

Experiments:
enterovirus type 70 = assay: Inhibition of virus cytopathogenic effect (CPE) in LLC-MK2 cells; format: cell-based; conditions: for CI (chemotherapeutic index): CI=CD50 /ID50; for IC50: Enterovirus D, enterovirus type 70, 100-300 TCID50, LLC-MK2 cells, 33° C., examined at 48, 72, 96 and 120 h, read-out: IC50 (lowest concentration that reduced virus CPE by 50% or more)
[1] = Morphological cytotoxicity in LLC-MK2 cells; format: cell-based; conditions: monkey, 33° C., examined at 48, 72, 96 and 120 h, read-out: CD50 (lowest concentration that caused morphological cytotoxicity by 50% or more)

Compound	CI (chemotherapeutic index) (enterovirus type 70)	IC50 (enterovirus type 70)	CC50 [1]
Cl.Cl.c1ccc2[nH]c(CNc3ccncc3)nc2c1 [Compound I, 2-(4-pyridylaminomethyl) benzimidazole dihydrochloride]	152	3.7 µg/mL	562 µg/mL
Clc1ccc2[nH]c(CNc3ccncc3)nc2c1 [Compound II, 2-(4-pyridylaminomethyl)-5(6)-chlorobenzimidazole dihydrochloride]	99	1.8 µg/mL	178 µg/mL
O=C(c1ccccc1)c1ccc2[nH]c(CNc3ccncc3)nc2c1 [Compound III, 2-(4-pyridylaminomethyl)-5(6)-benzoylbenzimidazole dihydrochloride]		> 100 µg/mL	> 100 µg/mL
COc1ccc2[nH]c(CNc3ccncc3)nc2c1 [Compound IV, 2-(4-pyridylaminomethyl)-5(6)-methoxybenzimidazole dihydrochloride]	64	27.6 µg/mL	1770 µg/mL
FC(F)(F)c1ccc2[nH]c(CNc3ccncc3)nc2c1 [Compound IX, 2-(4-pyridylaminomethyl)-5(6)-trifluoromethylbenzimidazole dihydrochloride]	64	5.5 µg/mL	354 µg/mL
Cc1ccc2[nH]c(CNc3ccncc3)nc2c1 [Compound V, 2-(4-pyridylaminomethyl)-5(6)-methylbenzimidazole dihydrochloride]	311	1.8 µg/mL	562 µg/mL
O=[N+]([O-])c1ccc2[nH]c(CNc3ccncc3)nc2c1 [Compound VI, 2-(4-pyridylaminomethyl)-5(6)-nitrobenzimidazole dihydrochloride]		> 100 µg/mL	> 100 µg/mL
Cl.Cl.Clc1cc2nc(CNc3ccncc3)[nH]c2cc1Cl [Compound VII, 2-(4-pyridylaminomethyl)-5,6-dichlorobenzimidazole dihydrochloride]	126	1.4 µg/mL	177 µg/mL
Nc1ccc2[nH]c(CNc3ccncc3)nc2c1 [Compound VIII, 2-(4-pyridylaminomethyl)-5(6)-aminobenzimidazole trihydrochloride]		> 100 µg/mL	> 100 µg/mL
CCc1ccc2[nH]c(CNc3ccncc3)nc2c1 [Compound X, 2-(4-pyridylaminomethyl)-5(6)-ethylbenzimidazole dihydrochloride]	362	0.98 µg/mL	354 µg/mL
Cc1cccc2[nH]c(CNc3ccncc3)nc12 [Compound XI, 2-(4-pyridylaminomethyl)-4(7)-methylbenzimidazole dihydrochloride]		> 100 µg/mL	> 100 µg/mL
Cc1cc2nc(CNc3ccncc3)[nH]c2cc1C.Cl.Cl [Compound XII, 2-(4-pyridylaminomethyl)-5,6-dimethylbenzimidazole dihydrochloride]	239	3 µg/mL	707 µg/mL
